Data reported in patent publication US20220305178A1, “CANCER TREATMENT BY IN VITRO AMINO ACID DEPRIVATION” (YUANHENG BIOMEDICAL CO., LTD., priority 2021, published 2022).

Legend:
[1] = Modified hemodialysis of simulated blood with Asparaginase in the dialysate, amino acids by UPLC; assay type: biochemical, pig; conditions: for concentration of Asn of the simulated blood / concentration of Arg of the simulated blood / concentration of Gln of the simulated blood / concentration of Met of the simulated blood / concentration of Ser of the simulated blood: Experimental group 1, Asparaginase 1 K.U./ml in dialysate; for concentration of Arg of the simulated blood / concentration of Gln of the simulated blood / concentration of Met of the simulated blood / concentration of Ser of the simulated blood: non-target amino acid
Method: 900 ml of pig's blood and 100 ml of Gibco Roswell Park Memorial Institute (RPMI) 1640 Medium (RPMI 1640 Medium) were mixed to obtain a diluted pig's blood. The diluted pig's blood was further added with 1.8 mg/ml EDTA-K^2+, 0.05% sodium azide; and 132 μl of Heparin with the concentration of 5000 U/ml to obtain a simulated blood, wherein the concentration of EDTA-K^2+ of the simulated blood was […].
The dialysis machine is Toray TR-321. The dialysate for extracorporeal circulation was triple the amount of the simulated blood and was 3000 ml, and the flow rate of dialysate was 500 ml/min. Before the simulated blood entered the dialysis machine, 1X PBS was used to clean the circulation pipeline of the dialysis machine, to achieve the required balance of the artificial kidney (Polyflux 17L), and to get rid of all bubbles in the artificial kidney, and the circulation speed was 250 ml/min. Besides, the effective membrane area of the artificial kidney is 1.7 m^2.
The dialysate consisted of Buffer A (hemodialysis concentrate No. 16, purchased from Taiwan Biotech Co., LTD), Buffer B (Sodium Bicarbonate Concentrate 8.4%, purchased from Fressenius Medical Care Ag, 61348 Bad Homburg, Germany) and R.O. water, wherein the volume ratio of Buffer A, Buffer B and R.O. water is 1:1.225:32.775.
The target amino acid is Asparagine (Asn), and the rest are non-target amino acids. The 3000 ml dialysate was added with 3 ml of Asparaginase with the concentration of 1000 K.U./ml (LEUNASE®) in the Experimental group 1, so the concentration of Asparaginase in the dialysate is 1 K.U./ml. No Asparaginase was added in the Control group 1.
The conductivity of the dialysate was adjusted to about 14 mS/cm. The dialysis temperature was set to be 37° C. When the pressure of the circulation pipeline, the temperature and the conductivity of the dialysate reached the desirable value and were stable, a green light signaled to indicate that hemodialysis was ready. The simulated blood was pumped into the circulation pipeline and entered the artificial kidney. Besides, the simulated blood was further added with Heparin with the concentration of 5000 U/ml at the flow rate of 4.4 ml/hour before the simulated blood entered the artificial kidney. The concentrations of amino acids in the simulated blood before and after dialysis were detected by ultra performance liquid chromatography (UPLC) and the results were shown in Table 1 and Table 2.

[2] = Modified peritoneal dialysis with artificial kidneys of different effective membrane areas (Example 4); assay type: biochemical; conditions: for Arg (%) of the peritoneal fluid / Arg (μM) of the peritoneal fluid: non-target amino acid
Method: (§1) RPMI 1640 Medium was ten times diluted to obtain 1 L of RPMI 1640 diluent with Dianeal PD-2 (Peritoneal Dialysis Solution) and to serve as a peritoneal fluid for the control group 2. 1 L and 2 L of the same RPMI 1640 diluent was prepared for the Experimental group 2 and Experimental group 3, respectively.
(§2) The flow rate or circulation speed of the dialysate was 250 ml/min. Before the peritoneal fluid (RPMI 1640 diluent) entered the dialysis machine, RPMI 1640 diluent was also used to clean the circulation pipeline of the dialysis machine, to achieve the required equilibrium of the artificial kidney, and to get rid of all bubbles in the artificial kidney. Besides, the artificial kidneys of the control group 2 and the experimental group 2 were NV-15U with the effective membrane area of 1.5 m^2; and the artificial kidney of the experimental group 3 was NV-21U with the effective membrane area of 2.1 m^2.
(§3) The dialysate is DIANEAL PD-2 Peritoneal Dialysis Solution with 1.5% Dextrose (Baxter). The target amino acid is Asparagine (Asn), and the concentration of Asparaginase in the dialysate is 1 K.U./ml in the Experimental groups 2 & 3. No Asparaginase was added in the control group 2.
(§4) The dialysis temperature was set to be 37° C. The peritoneal fluid (RPMI 1640 diluent) was first pumped into slot A for temporary storage and then entered the artificial kidney. After peritoneal fluid (RPMI 1640 diluent) left the artificial kidney, peritoneal fluid (RPMI 1640 diluent) further entered slot B for temporary storage, and then left the dialysis machine, e.g. the peritoneal fluid (RPMI 1640 diluent) was pumped back to the peritoneal cavity of the patient. The concentrations of amino acids in the peritoneal fluid before and after dialysis were studied by using Amino Acid Analysis Systems (Waters UPLC® Amino Acid Analysis (AAA) Solution) and the result was shown in Table 3 to Table 5.
Example 4 was carried out with the method the same as Example 3 except that the artificial kidneys with different effective membrane areas were adopted. The concentrations of amino acids in the peritoneal fluid before and after dialysis were studied and the result was shown in Table 6.

[3] = Modified peritoneal dialysis of peritoneal fluid (RPMI 1640 diluent) with Asparaginase in the dialysate (Example 3); assay type: biochemical
Method: as §1, §2, §3, §4

[4] = dialyzer BG-1.6U (1.6 m^2), dialysis time 0 min
[5] = dialyzer BG-1.6U (1.6 m^2), dialysis time 3 min
[6] = dialyzer BG-1.6U (1.6 m^2), dialysis time 5 min
[7] = dialyzer BG-1.6U (1.6 m^2), dialysis time 10 min
[8] = dialyzer BG-1.6U (1.6 m^2), dialysis time 20 min
[9] = dialyzer BG-1.8U (1.8 m^2), dialysis time 0 min
[10] = dialyzer BG-1.8U (1.8 m^2), dialysis time 3 min
[11] = dialyzer BG-1.8U (1.8 m^2), dialysis time 5 min
[12] = dialyzer BG-1.8U (1.8 m^2), dialysis time 10 min
[13] = dialyzer BG-1.8U (1.8 m^2), dialysis time 20 min
[14] = dialyzer polyflux-140H (1.4 m^2), dialysis time 0 min
[15] = dialyzer polyflux-140H (1.4 m^2), dialysis time 3 min
[16] = dialyzer polyflux-140H (1.4 m^2), dialysis time 5 min
[17] = dialyzer polyflux-140H (1.4 m^2), dialysis time 10 min
[18] = dialyzer polyflux-140H (1.4 m^2), dialysis time 20 min

Asparaginase
concentration of Asn of the simulated blood ([1]; Polyflux 17L 1.7 m^2, dialysis time 0 min): 41.8 µM
concentration of Asn of the simulated blood ([1]; Polyflux 17L 1.7 m^2, dialysis time 3 min): 32.3 µM
concentration of Asn of the simulated blood ([1]; Polyflux 17L 1.7 m^2, dialysis time 5 min): 24.2 µM
concentration of Arg of the simulated blood ([1]; dialysis time 0 min): 212.4 µM
concentration of Gln of the simulated blood ([1]; dialysis time 0 min): 381.8 µM
concentration of Met of the simulated blood ([1]; dialysis time 0 min): 38.5 µM
concentration of Ser of the simulated blood ([1]; dialysis time 0 min): 159.8 µM
concentration of Arg of the simulated blood ([1]; dialysis time 3 min): 83.0 µM
concentration of Gln of the simulated blood ([1]; dialysis time 3 min): 147.5 µM
concentration of Met of the simulated blood ([1]; dialysis time 3 min): 16.0 µM
concentration of Ser of the simulated blood ([1]; dialysis time 3 min): 67.7 µM
concentration of Arg of the simulated blood ([1]; dialysis time 5 min): 74.6 µM
concentration of Gln of the simulated blood ([1]; dialysis time 5 min): 131.5 µM
concentration of Met of the simulated blood ([1]; dialysis time 5 min): 14.4 µM
concentration of Ser of the simulated blood ([1]; dialysis time 5 min): 63.2 µM
concentration of Arg of the simulated blood ([1]; dialysis time 10 min): 16.9 µM
concentration of Gln of the simulated blood ([1]; dialysis time 10 min): 24.2 µM
concentration of Met of the simulated blood ([1]; dialysis time 10 min): 3.7 µM
concentration of Ser of the simulated blood ([1]; dialysis time 10 min): 17.5 µM
concentration of Arg of the simulated blood ([1]; dialysis time 20 min): 14.7 µM
concentration of Gln of the simulated blood ([1]; dialysis time 20 min): 18.2 µM
concentration of Met of the simulated blood ([1]; dialysis time 20 min): 3.8 µM
concentration of Ser of the simulated blood ([1]; dialysis time 20 min): 20.0 µM
concentration of Arg of the simulated blood ([1]; dialysis time 30 min): 14.3 µM
concentration of Gln of the simulated blood ([1]; dialysis time 30 min): 18.3 µM
concentration of Met of the simulated blood ([1]; dialysis time 30 min): 3.5 µM
concentration of Ser of the simulated blood ([1]; dialysis time 30 min): 17.8 µM
dialysis time within which Asparagine (Asn) is undetectable ([1]; Experimental group 1, simulated blood, LOD of Asparagine 5 μM): ≤ 10 min
concentration of non-target amino acid maintained ([2]; Example 4, artificial kidneys 1.4 to 1.8 m^2): about 50%
Asn (%) of the peritoneal fluid [2, 4]: 100%
Asn (μM) of the peritoneal fluid [2, 4]: 45.5 µM
Asn (%) of the peritoneal fluid [2, 5]: 73.90%
Asn (μM) of the peritoneal fluid [2, 5]: 33.6 µM
Arg (%) of the peritoneal fluid [2, 4]: 100%
Arg (μM) of the peritoneal fluid [2, 4]: 95.3 µM
Arg (%) of the peritoneal fluid [2, 5]: 86.3%
Arg (μM) of the peritoneal fluid [2, 5]: 82.2 µM
Arg (%) of the peritoneal fluid [2, 6]: 74.8%
Arg (μM) of the peritoneal fluid [2, 6]: 71.3 µM
Arg (%) of the peritoneal fluid [2, 7]: 65.8%
Arg (μM) of the peritoneal fluid [2, 7]: 62.7 µM
Arg (%) of the peritoneal fluid [2, 8]: 49.7%
Arg (μM) of the peritoneal fluid [2, 8]: 47.4 µM
Asn (%) of the peritoneal fluid [2, 9]: 100%
Asn (μM) of the peritoneal fluid [2, 9]: 36.7 µM
Arg (%) of the peritoneal fluid [2, 9]: 100%
Arg (μM) of the peritoneal fluid [2, 9]: 89.0 µM
Arg (%) of the peritoneal fluid [2, 10]: 75.1%
Arg (μM) of the peritoneal fluid [2, 10]: 66.8 µM
Arg (%) of the peritoneal fluid [2, 11]: 76.5%
Arg (μM) of the peritoneal fluid [2, 11]: 68.0 µM
Arg (%) of the peritoneal fluid [2, 12]: 61.5%
Arg (μM) of the peritoneal fluid [2, 12]: 54.7 µM
Arg (%) of the peritoneal fluid [2, 13]: 61.2%
Arg (μM) of the peritoneal fluid [2, 13]: 54.4 µM
Asn (%) of the peritoneal fluid [2, 14]: 100%
Asn (μM) of the peritoneal fluid [2, 14]: 36.9 µM
Asn (%) of the peritoneal fluid [2, 15]: 85.8%
Asn (μM) of the peritoneal fluid [2, 15]: 31.6 µM
Asn (%) of the peritoneal fluid [2, 16]: 62.3%
Asn (μM) of the peritoneal fluid [2, 16]: 23.0 µM
Arg (%) of the peritoneal fluid [2, 14]: 100%
Arg (μM) of the peritoneal fluid [2, 14]: 93.7 µM
Arg (%) of the peritoneal fluid [2, 15]: 93.6%
Arg (μM) of the peritoneal fluid [2, 15]: 87.6 µM
Arg (%) of the peritoneal fluid [2, 16]: 84.8%
Arg (μM) of the peritoneal fluid [2, 16]: 79.4 µM
Arg (%) of the peritoneal fluid [2, 17]: 71.4%
Arg (μM) of the peritoneal fluid [2, 17]: 66.9 µM
Arg (%) of the peritoneal fluid [2, 18]: 57.9%
Arg (μM) of the peritoneal fluid [2, 18]: 54.2 µM
concentration of Asn of the peritoneal fluid ([3]; experimental group 2, Asparaginase 1 K.U./ml in dialysate, NV-15U 1.5 m^2, dialysis time 0 min): 27.284 µM
concentration of Asn of the peritoneal fluid ([3]; experimental group 2, Asparaginase 1 K.U./ml in dialysate, NV-15U 1.5 m^2, dialysis time 3 min): 23.254 µM
concentration of Asn of the peritoneal fluid ([3]; experimental group 2, Asparaginase 1 K.U./ml in dialysate, NV-15U 1.5 m^2, dialysis time 5 min): 9.088 µM
concentration of Arg of the peritoneal fluid ([3]; experimental group 2, Asparaginase 1 K.U./ml in dialysate, NV-15U 1.5 m^2, non-target amino acid, dialysis time 0 min): 102.6 µM
concentration of Arg of the peritoneal fluid ([3]; experimental group 2, Asparaginase 1 K.U./ml in dialysate, NV-15U 1.5 m^2, non-target amino acid, dialysis time 3 min): 90.0 µM
concentration of Arg of the peritoneal fluid ([3]; experimental group 2, Asparaginase 1 K.U./ml in dialysate, NV-15U 1.5 m^2, non-target amino acid, dialysis time 5 min): 70.5 µM
dialysis time within which Arginine (Arg) is lower to 50% of the original concentration ([3]; experimental group 2, NV-15U 1.5 m^2): ≤ 10 min
concentration of Asparagine (Asn) relative to original ([3]; experimental group 2, within 5 mins of dialysis): less than 50%
concentration of Asn of the peritoneal fluid ([3]; experimental group 3, Asparaginase 1 K.U./ml in dialysate, NV-21U 2.1 m^2, dialysis time 0 min): 30.674 µM
concentration of Arg of the peritoneal fluid ([3]; experimental group 3, Asparaginase 1 K.U./ml in dialysate, NV-21U 2.1 m^2, non-target amino acid, dialysis time 0 min): 83.86 µM
concentration of Arg of the peritoneal fluid ([3]; experimental group 3, Asparaginase 1 K.U./ml in dialysate, NV-21U 2.1 m^2, non-target amino acid, dialysis time 3 min): 70.12 µM
concentration of Arg of the peritoneal fluid ([3]; experimental group 3, Asparaginase 1 K.U./ml in dialysate, NV-21U 2.1 m^2, non-target amino acid, dialysis time 5 min): 37.31 µM
concentration of Arg of the peritoneal fluid ([3]; experimental group 3, Asparaginase 1 K.U./ml in dialysate, NV-21U 2.1 m^2, non-target amino acid, dialysis time 10 min): 19.99 µM
dialysis time within which Arginine (Arg) is lower to 50% of the original concentration ([3]; experimental group 3, NV-21U 2.1 m^2): ≤ 5 min
dialysis time within which Asparagine (Asn) is undetectable ([3]; experimental group 3, NV-21U 2.1 m^2, peritoneal fluid, LOD of Asparagine 5 μM): ≤ 3 min
